Laboratory results published in patent publication US4504483A, “Fluorine substituted pyridine methyl esters and insecticidal and acaricidal compositions thereof” (Nissan Chemical Industries Ltd., priority 1981, dated 1985).
In brackets after ≈: the same amount, converted by molar mass.

Columns and labels:
green rice leafhopper = assay: Contact test for killing green rice leafhopper; format: in vivo; conditions: Nephotettix cincticeps, 48 h, read-out: LC50 (median lethal dose)
Description: Stems and leaves of a rice seedling were dipped in each emulsion of each active ingredient of the present invention or a reference compound for 10 seconds and were dried in air. The stems and leaves were covered with a glass cylinder. Adult green rice leafhoppers which are resistant to the conventional organic phosphorus type insecticide were released into the glass cylinder which was covered with a cover having holes and was maintained in a constant temperature room at 25° C. for 48 hours and each percent mortality was determined and median lethal dose (LC50) was calculated in Finny's graphic method.

Common cutworm = assay: Contact test for killing Common cutworm; format: in vivo, Spodoptcra litura; conditions: 48 h, read-out: LC50 (median lethal dose)
Description: Leaves of cabbage were dipped in each aqueous emulsion of each active ingredient of the compounds of the invention or the reference for 10 seconds. The leaves were taken up and dried in air and put in a Petri dish. Common cutworms (second instar) were put in the Petri dish which was covered with a cover having many holes. The Petri dish was maintained in a constant temperature room at 25° C. for 48 hours and each percent mortality was determined and median lethal dose (LC50) was calculated in Finny's graphic method.

[1] = test system: Twenty-eight-spotted Ladybeetle; assay: Contact test for killing Twenty-eight-spotted Ladybeetle; format: in vivo; conditions: Henosepilachna vigintioctopunctata, in Solanum lycopersicum, 48 h, read-out: LC50 (median lethal dose)
Description: Leaves of tomato were dipped in each emulsion of each active ingredient of the present invention or the reference for 10 seconds. The leaves were taken up and dired in air and put in a Petri dish. Ten of Twenty-eight-spotted Ladybeetles (second instar) were put in the Petri dish which was covered with a cover. The Petri dish was maintained in a constant temperature room at 25° C. for 48 hours and percent mortality was determined and median lethal dose (LC50) was calculated in Finny's graphic method.

Green peach aphid = assay: Test for killing Green peach aphid; format: in vivo, Myzue persicae; conditions: Myzus persicae, 48 h, read-out: LC50 (median lethal dose)
Description: Each emulsifiable concentrate of the compound of the present invention or the reference compound was diluted with water to a predetermined concentration. Green peach aphid were inoculated on leaves in a Petri dish having a diameter of 3 cm and 2 ml of each emulsion was sprayed and it was covered. The Petri dish was maintained in a constant temperature room at 25° C. for 48 hours and each percent of mortality was determined and median lethal dose (LC50) was calculated in Finny's graphic method.

Kanzawa spider mite = assay: Test for killing Kanzawa spider mite; format: in vivo; conditions: Tetranychus kanzawai, in Phaseolus vulgaris, 48 h, read-out: LC50 (median lethal dose)
Source text: Leaves of kidney bean was cut by a leaf-punch in a form of circle having a diameter of 1.5 cm. The leaf-discs were put on a wet filter paper on a polystyrene cup having a diameter of 7 cm. Ten of Kanzawa spider mites were inoculated on the leaf-discs in the cup. Half days after the inoculation, each solution prepared by diluting each emulsifiable concentrate of the present invention or each reference compound with a spreader (Nitten S 4,000 times manufactured by Nissan Chem.) at each predetermined concentration was sprayed by a rotary spray for 2 ml. per each cup.
Numbers of mortalities of mites were measured after 48 hours from the spraying and percent mortaliteis were calculated and median lethal dose (LC50) was calculated in Finny's graphic method.

Compound	LC50 (green rice leafhopper)	LC50 (Common cutworm)	LC50 [1]	LC50 (Green peach aphid)	LC50 (Kanzawa spider mite)
CC1(C)[C@@H](C(=O)OC(C#N)c2ccc(F)c(Oc3ccccc3)n2)[C@@H]1c1ccc(Cl)cc1 (relative stereo) [Compound No. 3]	0.7 µg/mL (≈ 1.55 µM)	1.3 µg/mL (≈ 2.88 µM)	0.26 µg/mL (≈ 0.577 µM)		
CC(C)(C)c1ccc([C@H]2[C@H](C(=O)OC(C#N)c3ccc(F)c(Oc4ccccc4)n3)C2(C)C)cc1 (relative stereo) [Compound No. 4, Cyano(5-fluoro-6-phenoxy-2-pyridyl) methyl trans-2,2-dimethyl-3-(p-t-butylphenyl)cyclopropanecarboxylate]	1.3 µg/mL (≈ 2.75 µM)	4 µg/mL (≈ 8.46 µM)		4.6 µg/mL (≈ 9.73 µM)	0.32 µg/mL (≈ 0.677 µM)
CC(C)C(C(=O)OC(C#N)c1ccc(F)c(Oc2ccccc2)n1)c1ccc(Cl)cc1 (stereo not drawn) [Compound No. 1, Cyano(5-fluoro-6-phenoxy-2-pyridyl) methyl α-isopropyl-p-chlorophenylacetate]	0.26 µg/mL (≈ 0.592 µM)	0.43 µg/mL (≈ 0.98 µM)	0.05 µg/mL (≈ 0.114 µM)		6.3 µg/mL (≈ 14.4 µM)
CC(C)C(C(=O)OC(C#N)c1ccc(F)c(Oc2ccccc2)n1)c1ccc(OC(F)F)cc1 (centres unmarked) [Compound No. 2]	0.28 µg/mL (≈ 0.595 µM)	3 µg/mL (≈ 6.38 µM)	0.5 µg/mL (≈ 1.06 µM)	2.3 µg/mL (≈ 4.89 µM)	12 µg/mL (≈ 25.5 µM)
CC1(C)C(C=C(Cl)Cl)C1C(=O)OC(C#N)c1ccc(F)c(Oc2ccccc2)n1 (centres unmarked) [Compound No. 5]	0.4 µg/mL (≈ 0.919 µM)	0.31 µg/mL (≈ 0.712 µM)	0.03 µg/mL (≈ 0.0689 µM)	1.84 µg/mL (≈ 4.23 µM)	5.4 µg/mL (≈ 12.4 µM)
CC1(C)[C@H](C(=O)OC(C#N)c2ccc(F)c(Oc3ccccc3)n2)[C@@H]1C=C(Br)Br (stereo partly drawn) [Compound No. 6, Cyano(5-fluoro-6-phenoxy-2-pyridyl) methyl (1R, cis)-2,2-dimethyl-3-(2,2-dibromovinyl)cyclopropane carboxylate]	0.31 µg/mL (≈ 0.591 µM)	0.24 µg/mL (≈ 0.458 µM)	0.02 µg/mL (≈ 0.0382 µM)		
CC(C)C(C(=O)OC(C#N)c1cccc(Oc2ccc(F)cc2)n1)c1ccc(Cl)cc1 (centres unmarked) [Reference Compd. A]	1.4 µg/mL (≈ 3.19 µM)	3.1 µg/mL (≈ 7.06 µM)			100 µg/mL (≈ 228 µM)
CC(C)C(C(=O)OC(C#N)c1cccc(Oc2ccccc2)n1)c1ccc(Cl)cc1 (centres unmarked) [Reference Compd. B]	5 µg/mL (≈ 11.9 µM)	1.7 µg/mL (≈ 4.04 µM)			
CC(C)C(C(=O)OC(C#N)c1cccc(Oc2ccc(F)cc2)n1)c1ccc(OC(F)F)cc1 (centres unmarked) [Reference Compd. C]	76 µg/mL (≈ 162 µM)	5 µg/mL (≈ 10.6 µM)	21 µg/mL (≈ 44.6 µM)		> 100 µg/mL
CC(C)C(C(=O)OC(C#N)c1cccc(Oc2ccccc2)n1)c1ccc(OC(F)F)cc1 (centres unmarked) [Reference Compd. D]	6 µg/mL (≈ 13.3 µM)	9 µg/mL (≈ 19.9 µM)	0.9 µg/mL (≈ 1.99 µM)	26 µg/mL (≈ 57.5 µM)	
CC1(C)C(C(=O)OC(C#N)c2cccc(Oc3ccc(F)cc3)n2)C1c1ccc(Cl)cc1 (centres unmarked) [Reference Compd. E]	16 µg/mL (≈ 35.5 µM)	13 µg/mL (≈ 28.8 µM)			
CC1(C)C(C(=O)OC(C#N)c2cccc(Oc3ccccc3)n2)C1c1ccc(Cl)cc1 (centres unmarked) [Reference Compd. F]		15 µg/mL (≈ 34.6 µM)	2 µg/mL (≈ 4.62 µM)		
CC(C)(C)c1ccc(C2C(C(=O)OC(C#N)c3cccc(Oc4ccc(F)cc4)n3)C2(C)C)cc1 (centres unmarked) [Reference Compd. G]	32 µg/mL (≈ 67.7 µM)	12 µg/mL (≈ 25.4 µM)			2 µg/mL (≈ 4.23 µM)
CCCCc1ccc(C2C(C(=O)OC(C#N)c3cccc(Oc4ccccc4)n3)C2(C)C)cc1 (centres unmarked) [Reference Compd. H]	6.4 µg/mL (≈ 14.1 µM)			12 µg/mL (≈ 26.4 µM)	
CC1(C)C(C=C(Cl)Cl)C1C(=O)OCc1cccc(Oc2ccccc2)n1 (centres unmarked) [Reference Compd. I]	3.7 µg/mL (≈ 9.43 µM)	10 µg/mL (≈ 25.5 µM)		34 µg/mL (≈ 86.7 µM)	> 100 µg/mL
